In patent publication US11247970B2, “Selective inhibition of gluconeogenic activity” (Dana-Farber Cancer Institute, Inc., priority 2017, dated 2022):

Experiments:
[1] = system: HFD fed mice; assay: Fasting blood glucose in HFD fed mice; assay type: in vivo; conditions: 45 mg/kg I.P., 3 days and again day 4
Procedure: All mice were purchased from Jackson laboratories and housed under a 12 h light/12 h dark cycle at 22° C. Before handling, mice were allowed to acclimate for at least 1 week in our animal facility. For in vivo studies with DIO mice, males 6-8 weeks old were fed HFD for the indicated time. […] Metformin was re-suspended in the same solution at a 20 mg/ml concentration. […] Metformin was administered via oral gavage. […] Glycemia was measured by tail bleed using a glucometer (OneTouch). For all experiments, age- and body weight-matched animals were used.
Therefore, blood glucose was measured in the fasted state during which the liver plays a major role maintaining glycemia. […] A high fat diet (HFD) fed mice, a dietary model of obesity and T2D, were used.

[2] = system: HNF4α; assay: Transcriptional luciferase reporter assay (Pck1 promoter fragment with HNF4α site) in U-2 OS cells; assay type: cell-based; conditions: 24 h
Procedure: U-2 OS cells were transfected with a fixed amount of DNA. After 6 h medium was changed and compound treatment started. The following morning medium was changed again and fresh compound was added for additional 3 h after which cells were collected (24 h post transfection) with 1× Passive Lysis Buffer (Promega). Firefly luciferase reporter was determined by addition of Luciferase Assay Substrate (Dual-Luciferase Reporter Assay System, Promega) and quantification of luminescence on a FLUOstar Omega plate reader (BMG Labtech). CMV-driven Renilla luciferase vector was cotransfected as an internal control. Data are presented as firefly luciferase reporter values normalized to Renilla values and are representative of at least two independent experiments.
The GCN5 acetyl transferase complex decreases PGC-1α gluconeogenic transcriptional activation by interacting with PGC-1α. This is achieved at least in part by reducing the ability of PGC-1α to co-activate the nuclear hormone receptor HNF4α. Co-activation of HNF4α by PGC-1α is required to promote transcription of the gluconeogenic genes Pck1 and G6pc. To test whether SR-18292 reduces the transcriptional activity of HNF4α that is induced by PGC-1α, a luciferase reporter construct driven by a fragment of the Pck1 promoter containing an HNF4α binding site was used. […]

[3] = Fasting insulin and liver pAkt in treated mice; assay type: in vivo
Procedure: Serum samples were gathered from blood collected by cardiac puncture. Insulin was measured with Ultra Sensitive Mouse Insulin ELISA Kit (Crystal Chem, 90080). Kits used to measure alanine transaminase (EALT-100), aspartate transaminase (EASTR-100), lactate dehydrogenase (DLDH-100) were purchased from Bioassay Systems. Kits used to measure lactate (MAK 064), b-hydroxybutyrate (MAK 041), Triglycerides (TR0100) were purchased from Sigma. Kit used to measure cholesterol (C7510) was purchased from Pointe Scientific. Kit used to measure non-esterified fatty acids was purchased from Wako.

[4] = system: HFD fed mice; assay: Chronic 14 day treatment of HFD mice; assay type: in vivo
Procedure: FIG. 57 is a plot monitoring body weight over a period of days. Mice fed HFD for 6 weeks were injected daily with SR-18292 for a total of 14 days and body weight was monitored during the treatment.
FIG. 58 is a series of bar graphs monitoring blood glucose. Mice were fasted at day 3 and 13 and fasting blood glucose was measured at day 4 and 14. Fed blood glucose was also measured at day 10. n=10, *P<0.05.
In addition, liver toxicity, as measured by serum levels of alanine transaminase (ALT), aspartate aminotransferase (AST), lactate dehydrogenase (LDH) and bilirubin, was not observed in mice treated with SR-18292 (Table 6). […] To assess the contribution of PGC-1α in mediating the in vivo effects of SR-18292, hepatic PGC-1α in Lep^ob/ob mice was depleted using shRNA and observed a significant reduction in basal blood glucose concentrations compared to control. […] To fully assess the effects of SR-18292 on whole body glucose homeostasis and insulin resistance, a glucose tolerance test (GTT) and insulin tolerance test (ITT) were performed following the same protocol used to determine fasting blood glucose. […] As expected, insulin levels after GTT were lower in the treated group (FIG. 51). […] To test if SR-18292 chronic treatment will cause similar anti-diabetic effects, mice were treated for a period of 14 days.

[5] = system: HFD fed mice; assay: Insulin tolerance test (ITT); assay type: in vivo; conditions: HFD 3 weeks
Procedure: All mice were purchased from Jackson laboratories and housed under a 12 h light/12 h dark cycle at 22° C. Before handling, mice were allowed to acclimate for at least 1 week in our animal facility. For in vivo studies with DIO mice, males 6-8 weeks old were fed HFD for the indicated time. For drug administration, SR-18292 was re-suspended in a 10% DMSO/10% Tween80/80% PBS solution at a final concentration of 6-12 mg/ml. Metformin was re-suspended in the same solution at a 20 mg/ml concentration. SR-18292 was injected via I.P. for 3 days between 4-5 pm and food was removed on day 3 at 5 pm. […] Metformin was administered via oral gavage. […] Insulin tolerance test was performed following the same dosing protocol, but mice were fasted for 4 hours after the forth injection before performing the test. Insulin was injected via I.P. (0.5 U/Kg) and blood glucose was measured every 20 minutes. Glycemia was measured by tail bleed using a glucometer (OneTouch). For all experiments, age- and body weight-matched animals were used. For protein, RNA extracts and biochemistry studies, livers were removed following each experiment and snap frozen in liquid nitrogen. For information on number of animals in each experiment please refer to FIGS. 4, 5 and S5 legends. All studies were performed according to protocols approved by Beth Israel Deaconess Medical Center's Animal Care and Use Committee.

Cc1ccc(CN(CC(O)COc2cccc3[nH]ccc23)C(C)(C)C)cc1 (stereo not drawn) [SR-18292, 1-((1H-indol-4-yl)oxy)-3-(tert-butyl(4-methylbenzyl)amino)propan-2-ol]
fasting blood glucose vs vehicle [1]: significantly lower
transcriptional activity of HNF4α induced by PGC-1α [2]: significantly reduced
basal (fasting) blood insulin levels ([3]; HFD 13 weeks): not significantly changed
phosphorylation of Akt in liver ([3]; fasted mice): not changed
ability to reduce blood glucose ([4]; 14 days daily treatment): sustained
body weight ([4]; 14 days daily treatment): without resulting in changes in body weight
toxicity by serum ALT and AST, H&E staining of liver, proinflammatory genes ([4]; 14 days treatment): did not cause any signs of toxicity
H&E staining of liver slices assessed by pathologist ([4]; after 14 days, n=10): no sign of toxicity was observed
liver triglycerides and cholesterol levels ([4]; after 14 days, n=10): not altered
serum ALT and AST levels ([4]; after 14 days, n=10): not altered
serum lactate, β-hydroxybutyrate and cholesterol levels ([4]; after 14 days, n=10): not altered
response to insulin [5]: enhanced
